# Data reported in patent US8389535B2, “L-methylfolate treatment for psychiatric or neurologic disorders” (priority 2010, dated 2013).
# Tests used:
# [1] = cited from earlier work
# [2] = as a medical food or other suitable formulation; cited from earlier work
# [3] = test system: CP-450 system; conditions: cited from earlier work
# [4] = test system: patients with an autism spectrum disorder or an attention deficit disorder
# Protocol: The patient is dosed with L-methylfolate orally once a day according to preparations available. The patient takes the medication at the same time of day and with a snack or meal. The patient is initially dosed with L-methylfolate according to weight as follows: • 25-45 lbs (11-20 kg): 2.5 mg • 46-60 lbs (21-27 kg): 5 mg • 61-90 lbs (28-41 kg): 7.5 mg • 91+ lbs (42+kg): 7.5-15 mg Dose Modifications and Duration of Therapy
# L-methylfolate is administered in doses and forms appropriate for age. L-methylfolate is titrated upward as indicated by behavior improvement according to the results from the screens. Titration may occur from week 1 through 30 days as indicated by the physician. From 30 days to 90 days, the achieved dose at 30 days is maintained until 90 days to observe for tolerance to drug, side effects. During this time, if the child is not weaned from stimulant medications, attempts are made to lower the stimulant as tolerated and discontinue stimulants if at all possible.
# In implementing therapy the first consideration is the presence of clinical signs consistent with previous or current diagnosis of an autism spectrum disorder or an attention deficit disorder. […] The established diagnosis was not a sole indicator for therapy.
# Second, a review of the family history is necessary. […] Parents were questioned about the presence of ADHD or autism spectrum disorders in the immediate family or extended family. Of particular interest was the presence of other neuropsychiatric conditions, such as depression, anxiety, and bipolar disorder. Parents also were queried regarding the presence of heart disease, difficulties with pregnancy due infertility or miscarriages, leukemia, gastric and colon cancers, breast cancer and stroke. In elderly members of the family, the occurrence of dementia, Alzheimer's, and Parkinson's was also discussed. The above diseases have also been associated to varying degrees with the methylenetetrahydrofolate reductase defect.
# Third, blood samples were collected and evaluated. The laboratory exams completed on the blood samples were: a complete blood count with differential, serum folate, serum B12, and serum homocysteine. The tests were performed to establish a baseline for red cell morphology while evaluating for any pre-existing pathologies related to anemia, leukemia, or other blood dycrasias. Serum folate and B12 have been implicated in certain pathologies of the red blood cell and are critical components in folate metabolism. Vitamin B12 in the range of 400 pg/ml or less has been associated with neuropsychiatric sequelae in 5-10% of population. (Quest Labs) Finally, elevated homocysteine levels in the serum have been associated with various disease states, particularly in the presence of the methylenetetrahydrofolate reductase gene polymorphisms. […] However, a few researchers have been able to evaluate severely compromised children.
# Fourth, serum was evaluated for the presence of methylenetetrahydrofolate reductase polymorphisms as a predictor of condition severity and response to therapy. Given the expense of these analyses, it was decided to delay evaluation of the serum for the polymorphisms until a clinic response was determined.
# In a preliminary trial, nineteen patients, ages 4-43 years, (3 female, 16 male) were randomly selected over the course of three months. Patients were permitted to remain on current medication or supplemental, i.e., fish oil and vitamins, therapies at parental request.
# [5] = via the kidneys; cited from earlier work
# [6] = of the 14 patients, parental report
Compound,"side effect, anecdotal report ([1]; one patient, dose increased to 1 mg/kg/d)",allergic reactions ([1]; oral use),blood brain barrier crossing [2],effect on CP-450 system [3],"response to therapy as indicated by parents' correspondence and office visits ([4]; 14 remaining of 19 patients, ages 4-43 years, oral once daily, dose by weight 2.5-15 mg, more stable mood, increased attentiveness, improved sleep hygiene)","patients with intermediate responses [4, 6]","patients with significant improvements [4, 6]",side effects ([4]; preliminary experience),time course of initial improvement ([4]; preliminary trial),"clinical response in patients negative for MTHFR gene polymorphisms ([4]; two children, parental reports)",response in patients positive for MTHFR gene polymorphisms ([4]; two of four patients with MTHFR analyses),excretion [5]
Nc1nc(=O)c2c([nH]1)NCC(CNc1ccc(C(=O)N[C@@H](CCC(=O)O)C(=O)O)cc1)N2C=O (mixture of isomers) [folinic acid],worsening of behavior symptoms,–,–,–,–,–,–,–,–,–,–,–
"CN1c2c(nc(N)[nH]c2=O)NC[C@@H]1CNc1ccc(C(=O)N[C@@H](CCC(=O)O)C(=O)O)cc1 [L-methylfolate, 6(S)-5-methyltetrahydrofolate]",–,Allergic reactions have been documented,crosses the blood brain barrier,does not affect CP-450 system,all have had a response to therapy,two,12,No side effects have been reported,"3-5 days, two weeks, or 4-6 weeks",responding clinically,positive response to therapy,rapidly excreted via the kidneys
